The values that follow come from ChEMBL document CHEMBL1201862, “PubChem BioAssay data set” (2004).

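Cells were grown in 96-well plates and exposed to each compound for 48 hours at five concentrations; endpoints were interpolated linearly between bracketing concentrations, or set to the highest concentration if not reached. GI50 = concentration required for 50% inhibition of growth.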 Active and inactive are the calls of the source. Rule as the data show it: active = GI50 up to about 1.1 µM and inactive = higher.

Test systems include CCRF-CEM; COLO 205; HCT-15; HOP-62; HOP-92; IGROV-1; K562; LOX IMVI; M14; NCI-H226; OVCAR-5; OVCAR-8; SK-MEL-2; SK-MEL-5; SK-OV-3; SW-620; UO-31.
What all share (assay): NCI tumour cell line growth inhibition, 48 h

Take `O=S(=O)(Sc1ccc(Cl)cc1)c1ccc(Cl)cc1`: the GI50 is 4.23 µM (inactive) with CCRF-CEM; 17.7 µM (inactive) in the assay with COLO 205; 17.7 µM in the assay with HCT-15; 15.3 µM (inactive) with HOP-62; 20.1 µM (inactive) in the assay with HOP-92; 16.8 µM (inactive) in the assay with IGROV-1. Also, the GI50 is 19.9 µM (inactive) in the assay with K562; 11.6 µM (inactive) with LOX IMVI; 17.5 µM (inactive) in the assay with M14; 16.7 µM (inactive) in the assay on NCI-H226; 19.9 µM (inactive) in the assay with OVCAR-5; 16.1 µM (inactive) with OVCAR-8. Moreover, the GI50 in the assay with SK-MEL-2 is 3.84 µM (inactive); in the assay with SK-MEL-5 it was 15.2 µM (inactive); with SK-OV-3, 44.7 µM (inactive); in the assay on SW-620 it was 17.6 µM (inactive); with UO-31 it was 11.2 µM (inactive).

As for `Cc1c(NC(=S)NC(=O)c2ccc([N+](=O)[O-])cc2)c(=O)n(-c2ccccc2)n1C`, the GI50 with CCRF-CEM was > 100 µM (inactive); in the assay on COLO 205, > 100 µM (inactive); in the assay on HCT-15, over 100 µM; in the assay on HOP-62 it was > 100 µM (inactive); with HOP-92, > 100 µM (inactive); in the assay with IGROV-1, > 100 µM (inactive). Besides, the GI50 with K562, in the assay with LOX IMVI, in the assay on M14, in the assay with NCI-H226, with OVCAR-5 and in the assay on OVCAR-8 was > 100 µM (inactive) each time. The GI50 in the assay on SK-MEL-2, with SK-MEL-5, with SK-OV-3, with SW-620 and in the assay on UO-31 was > 100 µM (inactive) throughout.

Turning to `CCc1cccc(CC)c1NC(=O)C1=C(C)NC(C)=C(C(=O)Nc2c(CC)cccc2CC)C1c1ccc([N+](=O)[O-])cc1`, the GI50 in the assay with CCRF-CEM is 15.5 µM (inactive); in the assay with COLO 205, 18 µM (inactive); with HOP-62 it was 57.5 µM (inactive); in the assay on HOP-92 it was 10.3 µM (inactive); with IGROV-1, 14.4 µM (inactive); with K562, 19.1 µM (inactive). In addition, the GI50 with LOX IMVI is 30.9 µM (inactive); with M14, 17.5 µM (inactive); in the assay on NCI-H226, 26.1 µM (inactive); with OVCAR-5, 44.7 µM (inactive); in the assay on OVCAR-8, 20.4 µM (inactive); with SK-MEL-2 it was 20 µM (inactive). Also, the GI50 in the assay with SK-MEL-5 was 15.1 µM (inactive); in the assay with SK-OV-3, 38.1 µM (inactive); with SW-620, 17.7 µM (inactive); in the assay on UO-31, 23.2 µM (inactive).

Regarding `Nc1nc2c(-c3ccc([N+](=O)[O-])cc3)nnn2c2ccccc12`, the GI50 in the assay on CCRF-CEM is > 10 µM (inactive); with COLO 205, > 100 µM (inactive); with HCT-15, over 100 µM; in the assay with HOP-62, 56.5 µM (inactive); with HOP-92, > 100 µM (inactive); in the assay on IGROV-1, > 100 µM (inactive). Also, the GI50 in the assay with K562 was > 100 µM (inactive); with LOX IMVI, > 100 µM (inactive); in the assay on M14, > 100 µM (inactive); in the assay with NCI-H226 it was > 100 µM (inactive); with OVCAR-5, > 100 µM (inactive); in the assay on OVCAR-8, 75.9 µM (inactive). Further, the GI50 in the assay on SK-MEL-2 was > 100 µM (inactive); with SK-OV-3, 51.4 µM (inactive); in the assay on SW-620 it was > 100 µM (inactive); in the assay on UO-31, > 100 µM (inactive).

`CCCCOC(=O)C1C2CCC(O2)C1C(=O)OCCCC` (configuration not stated): the GI50 is > 100 µM (inactive) with CCRF-CEM; > 42.5 µM (inactive) with COLO 205; over 65.2 µM in the assay on HCT-15; > 100 µM (inactive) in the assay with HOP-62; > 100 µM (inactive) in the assay with HOP-92; > 100 µM (inactive) in the assay with IGROV-1. Also, the GI50 is > 100 µM (inactive) in the assay with K562; > 44.8 µM (inactive) in the assay on LOX IMVI; > 52.1 µM (inactive) in the assay with M14; > 100 µM (inactive) with NCI-H226; > 89.9 µM (inactive) with OVCAR-5; > 100 µM (inactive) in the assay with OVCAR-8. In addition, the GI50 with SK-MEL-2, in the assay with SK-MEL-5, in the assay on SK-OV-3 and with UO-31 was > 100 µM (inactive) throughout.
